Laboratory results published in ChEMBL document CHEMBL1201862, “PubChem BioAssay data set” (2004).
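Cells were grown in 96-well plates and exposed to each compound for 48 hours at five concentrations; endpoints were interpolated linearly between bracketing concentrations, or set to the highest concentration if not reached. Abbreviation: GI50, concentration required for 50% inhibition of growth.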 Active and inactive are the calls of the source. Rule as the data show it: active = GI50 up to about 1.1 µM and inactive = higher.

Assays:
Assay in all cases: NCI anticancer screen, dose series, 48 h
A549 = test system: A549
CCRF-CEM = test system: CCRF-CEM
HCC 2998 = test system: HCC 2998
Hs-578T = test system: Hs-578T
MCF7 = test system: MCF7
Malme-3M = test system: Malme-3M
NCI-H226 = test system: NCI-H226
NCI-H460 = test system: NCI-H460
NCI/ADR-RES = test system: NCI/ADR-RES
OVCAR-4 = test system: OVCAR-4
OVCAR-5 = test system: OVCAR-5
SF-295 = test system: SF-295
SK-MEL-5 = test system: SK-MEL-5
SN12C = test system: SN12C
SNB-75 = test system: SNB-75
U-251 = test system: U-251
UACC-257 = test system: UACC-257
UO-31 = test system: UO-31
BT-549 = test system: BT-549

Measured: GI50

Cc1cc(NS(=O)(=O)c2ccc(NC(NC(=O)OC(C)C)(C(F)(F)F)C(F)(F)F)cc2)nc(C)n1
inactive: A549 > 100 µM | CCRF-CEM > 100 µM | HCC 2998 > 100 µM | Hs-578T > 100 µM | MCF7 > 100 µM | Malme-3M > 100 µM | NCI-H226 > 100 µM | NCI-H460 > 100 µM | NCI/ADR-RES > 100 µM | OVCAR-4 > 100 µM | OVCAR-5 > 100 µM | SF-295 > 100 µM | SK-MEL-5 > 100 µM | SN12C > 100 µM | SNB-75 > 100 µM | U-251 > 100 µM | UACC-257 > 100 µM

O=C(O)CCCc1ccc2c(c1)CC1(C2)Cc2cc3c(cc2C1)CCCC3
inactive: A549 6.43 µM | CCRF-CEM 11.6 µM | HCC 2998 19.8 µM | Hs-578T > 100 µM | MCF7 39.4 µM | Malme-3M 22 µM | NCI-H226 31.6 µM | NCI/ADR-RES 31.8 µM | OVCAR-4 19.5 µM | OVCAR-5 19.9 µM | SF-295 23.9 µM | SK-MEL-5 13.8 µM | SN12C 22.1 µM | U-251 16.7 µM | UACC-257 37.7 µM | UO-31 19.4 µM

CCN(CC)c1ccc(NC(=S)NN(C)C)cc1
inactive: A549 > 10 µM | CCRF-CEM > 10 µM | HCC 2998 > 10 µM | Hs-578T > 10 µM | MCF7 > 10 µM | Malme-3M > 10 µM | NCI-H226 > 10 µM | NCI-H460 > 10 µM | NCI/ADR-RES > 10 µM | OVCAR-4 > 10 µM | SF-295 > 10 µM | SK-MEL-5 > 10 µM | SN12C > 10 µM | SNB-75 > 10 µM | U-251 > 10 µM | UACC-257 > 10 µM | UO-31 > 10 µM

Cc1cccc2c1Oc1cc(Cl)ccc1C2NC(=O)CCN1CCN(CCO)CC1 (stereo not given)
inactive: A549 11.5 µM | BT-549 15.1 µM | CCRF-CEM 17.7 µM | HCC 2998 28.6 µM | MCF7 15.2 µM | NCI-H460 19.1 µM | NCI/ADR-RES 15.8 µM | OVCAR-4 16 µM | OVCAR-5 21.1 µM | SF-295 18.3 µM | SK-MEL-5 14 µM | SN12C 15 µM | SNB-75 4.61 µM | U-251 15.1 µM | UACC-257 16.6 µM | UO-31 12.8 µM

C/C(=N\O)c1ccc(OCc2cc(C(F)(F)F)cc(C(F)(F)F)c2)cc1
inactive: A549 46.1 µM | CCRF-CEM 15.9 µM | HCC 2998 32.1 µM | Hs-578T 37.8 µM | MCF7 20 µM | Malme-3M 41 µM | NCI-H226 40.6 µM | NCI-H460 23.4 µM | NCI/ADR-RES 61.2 µM | OVCAR-4 53.8 µM | OVCAR-5 > 100 µM | SF-295 55.2 µM | SK-MEL-5 50.9 µM | SN12C 46.2 µM | SNB-75 51.9 µM | U-251 34.4 µM | UACC-257 38.5 µM | UO-31 > 100 µM

Cc1cn(C2CCC(/C=N\O)O2)c(=O)[nH]c1=O (stereo not given)
inactive: A549 > 100 µM | BT-549 > 100 µM | CCRF-CEM > 100 µM | HCC 2998 > 100 µM | MCF7 > 100 µM | NCI-H226 > 100 µM | NCI-H460 > 100 µM | NCI/ADR-RES > 100 µM | OVCAR-4 > 100 µM | OVCAR-5 > 100 µM | SF-295 > 100 µM | SK-MEL-5 > 100 µM | SN12C > 100 µM | SNB-75 > 100 µM | U-251 > 100 µM | UACC-257 > 100 µM | UO-31 > 100 µM

NC(=S)N/N=C1\C(=O)C=C(Nc2ccc(Cl)cc2Cl)c2ccccc21
inactive: A549 > 100 µM | BT-549 18.7 µM | HCC 2998 > 100 µM | MCF7 48.9 µM | NCI-H226 33.6 µM | NCI-H460 57.4 µM | NCI/ADR-RES 33.6 µM | OVCAR-4 33.2 µM | OVCAR-5 > 100 µM | SF-295 12.8 µM | SK-MEL-5 27.4 µM | SN12C > 100 µM | SNB-75 11.5 µM | U-251 11 µM | UACC-257 > 100 µM | UO-31 92 µM

COC(=O)c1ccccc1/C=C1/Cc2ccccc2C1=O
inactive: A549 50.7 µM | CCRF-CEM 31.3 µM | HCC 2998 > 100 µM | Hs-578T 30.9 µM | MCF7 11.5 µM | Malme-3M 50.5 µM | NCI-H226 63.8 µM | NCI-H460 > 100 µM | NCI/ADR-RES 36.5 µM | OVCAR-4 34.4 µM | OVCAR-5 33.3 µM | SF-295 44.1 µM | SK-MEL-5 18.6 µM | SN12C 17.4 µM | SNB-75 > 100 µM | U-251 29.7 µM | UACC-257 24 µM | UO-31 50.6 µM
